# Experimental data published in ChEMBL document CHEMBL1129011, “Novel 4,4-bis(trifluoromethyl) imidazolines as stereospecific and orally active acyl coa: Cholesterol acyltransferase (ACAT) inhibitors and antihypercholesterolemic agents” (Bioorg Med Chem Lett, 1996).
# pIC50: −log10 of the molar value.
# Tests used:
# [1] = system: Oryctolagus cuniculus; assay: Percent reduction in serum cholesterol was determined by the oral administration in methylcellulose vehicle at a dose of 5 mg/kg/day for 4 day; type: functional
# [2] = Compound was evaluated for the inhibition of J774 macrophage cell culture Acyl coenzyme A:cholesterol acyltransferase; type: cell-based
# [3] = species on record: Oryctolagus cuniculus; assay: Antihypercholesterolemic value for the compound was determined; type: functional
# [4] = system: Oryctolagus cuniculus; assay: Percent reduction in serum cholesterol was determined by the oral administration in methylcellulose vehicle at a dose of 2.5 mg/kg/day for 7 days; type: functional
# [5] = species on record: Oryctolagus cuniculus; assay: Antihypercholesterolemic value for the compound was determined in rabbits; type: functional
SMILES,Reduction [1] [%],pIC50 [2],AHV [3] [%],Reduction [4] [%],AHV [5] [%]
CN(C(=O)c1ccc(C#N)cc1)[C@@H]1N(C)C(c2ccc(C#N)cc2)=NC1(C(F)(F)F)C(F)(F)F,12,4.27,15,–,–
CN(C(=O)c1ccc(C#N)cc1)C1N(C)C(c2ccc(C#N)cc2)=NC1(C(F)(F)F)C(F)(F)F (centres undefined),–,4.80,–,79,>90
CN(C(=O)c1ccc(C#N)cc1)[C@H]1N(C)C(c2ccc(C#N)cc2)=NC1(C(F)(F)F)C(F)(F)F,75,4.96,90,–,–
